Reference: US9884832B2 (priority 2011, dated 2018)

Legend:
[1] = target: AM2 S31N (serine→asparagine mutation at residue 31 in the M2 protein) (Influenza A virus, UniProt P0DOF5, S31N); assay type: cell-based, influenza virus A/Udorn/72
[2] = target: AM2 V27A (valine→alanine mutation at residue 27 in the M2 protein) (Influenza A virus, UniProt P0DOF5, V27A); assay type: cell-based, influenza virus A/Udorn/72

SMILES: c1csc(-c2ncc(CNC34CC5CC(CC(C5)C3)C4)s2)c1 [Example 144a, N-((2-(thiophen-2-yl)thiazol-5-yl)methyl)adamantan-1-amine]
- S31N OOcyte Inhibition at 100 uM (%) [1]: A (key: (A)=31-95%; (B)=0-30%)
- V27A OOcyte Inhibition at 100 uM (%) [2]: B (key: (A)=31-95%; (B)=0-30%)

SMILES: c1cc(-c2csc(CNC34CC5CC(CC(C5)C3)C4)c2)cs1 [Example 152a, N-([3,3′-bithiophen]-5-ylmethyl)adamantan-1-amine]
- S31N OOcyte Inhibition at 100 uM (%) [1]: B (key: (A)=31-95%; (B)=0-30%)
- V27A OOcyte Inhibition at 100 uM (%) [2]: A (key: (A)=31-95%; (B)=0-30%)

SMILES: c1coc(-c2cc(CNC34CC5CC(CC(C5)C3)C4)no2)c1 [Example 153a, N-((5-(furan-2-yl)isoxazol-3-yl)methyl)adamantan-1-amine]
- S31N OOcyte Inhibition at 100 uM (%) [1]: A (key: (A)=31-95%; (B)=0-30%)
- V27A OOcyte Inhibition at 100 uM (%) [2]: B (key: (A)=31-95%; (B)=0-30%)

SMILES: Cc1ncc(-c2ccc(CNC34CC5CC(CC(C5)C3)C4)s2)s1 [Example 154a, N-((5-(2-methylthiazol-5-yl)thiophen-2-yl)methyl)adamantan-1-amine]
- S31N OOcyte Inhibition at 100 uM (%) [1]: A (key: (A)=31-95%; (B)=0-30%)
- V27A OOcyte Inhibition at 100 uM (%) [2]: A (key: (A)=31-95%; (B)=0-30%)

SMILES: Cn1cc(C(F)(F)F)c(-c2ccc(CNC34CC5CC(CC(C5)C3)C4)s2)n1 [Example 155a, N-((5-(1-methyl-4-(trifluoromethyl)-1H-pyrazol-3-yl)thiophen-2-yl)methyl)adamantan-1-amine]
- S31N OOcyte Inhibition at 100 uM (%) [1]: B (key: (A)=31-95%; (B)=0-30%)
- V27A OOcyte Inhibition at 100 uM (%) [2]: B (key: (A)=31-95%; (B)=0-30%)

SMILES: Cc1nc(-c2ccc(CNC34CC5CC(CC(C5)C3)C4)s2)cs1 [Example 156a, N-((5-(2-methylthiazol-4-yl)thiophen-2-yl)methyl)adamantan-1-amine]
- S31N OOcyte Inhibition at 100 uM (%) [1]: A (key: (A)=31-95%; (B)=0-30%)
- V27A OOcyte Inhibition at 100 uM (%) [2]: A (key: (A)=31-95%; (B)=0-30%)

SMILES: c1csc(-c2ccc(-c3ccc(CNC45CC6CC(CC(C6)C4)C5)s3)s2)c1 [Example 157a, N-([2,2′:5′,2″-terthiophen]-5-ylmethyl)adamantan-1-amine]
- S31N OOcyte Inhibition at 100 uM (%) [1]: B (key: (A)=31-95%; (B)=0-30%)
- V27A OOcyte Inhibition at 100 uM (%) [2]: B (key: (A)=31-95%; (B)=0-30%)

SMILES: c1cc(-c2ccc(CNC34CC5CC(CC(C5)C3)C4)s2)[nH]n1 [Example 158a, N-((5-(1H-pyrazol-5-yl)thiophen-2-yl)methyl)adamantan-1-amine]
- S31N OOcyte Inhibition at 100 uM (%) [1]: A (key: (A)=31-95%; (B)=0-30%)
- V27A OOcyte Inhibition at 100 uM (%) [2]: A (key: (A)=31-95%; (B)=0-30%)

SMILES: Brc1ccc(-c2ccc(CNC34CC5CC(CC(C5)C3)C4)s2)s1 [Example 159a, N-((5′-bromo-[2,2′-bithiophen]-5-yl)methyl)adamantan-1-amine]
- S31N OOcyte Inhibition at 100 uM (%) [1]: A (key: (A)=31-95%; (B)=0-30%)
- V27A OOcyte Inhibition at 100 uM (%) [2]: B (key: (A)=31-95%; (B)=0-30%)

SMILES: c1cc(-c2ccc(CNC34CC5CC(CC(C5)C3)C4)o2)[nH]n1 [Example 162a, N-((5-(1H-pyrazol-5-yl)furan-2-yl)methyl)adamantan-1-amine]
- S31N OOcyte Inhibition at 100 uM (%) [1]: B (key: (A)=31-95%; (B)=0-30%)
- V27A OOcyte Inhibition at 100 uM (%) [2]: B (key: (A)=31-95%; (B)=0-30%)

SMILES: O=c1[nH]cc(CNC23CC4CC(CC(C4)C2)C3)c(=O)[nH]1 [Example 169a, 5-((adamantan-1-ylamino)methyl)pyrimidine-2,4(1H,3H)-dione]
- S31N OOcyte Inhibition at 100 uM (%) [1]: B (key: (A)=31-95%; (B)=0-30%)
- V27A OOcyte Inhibition at 100 uM (%) [2]: B (key: (A)=31-95%; (B)=0-30%)

SMILES: OC1CCC(CNC23CC4CC(CC(C4)C2)C3)CC1 (stereo not shown) [Example 170a, 4-(Adamantan-1-ylaminomethyl)-cyclohexanol]
- S31N OOcyte Inhibition at 100 uM (%) [1]: B (key: (A)=31-95%; (B)=0-30%)
- V27A OOcyte Inhibition at 100 uM (%) [2]: B (key: (A)=31-95%; (B)=0-30%)

SMILES: c1scc2[nH]c(CNC34CC5CC(CC(C5)C3)C4)nc12 [Example 171a, Adamantan-1-yl-(1H-thieno[3,4-d]imidazol-2-ylmethyl)-amine]
- S31N OOcyte Inhibition at 100 uM (%) [1]: A (key: (A)=31-95%; (B)=0-30%)
- V27A OOcyte Inhibition at 100 uM (%) [2]: B (key: (A)=31-95%; (B)=0-30%)

SMILES: Cn1c(CNC23CC4CC(CC(C4)C2)C3)cc2sccc21 [Example 172a, Adamantan-1-yl-(4-methyl-4H-thieno[3,2-b]pyrrol-5-ylmethyl)-amine]
- S31N OOcyte Inhibition at 100 uM (%) [1]: B (key: (A)=31-95%; (B)=0-30%)
- V27A OOcyte Inhibition at 100 uM (%) [2]: B (key: (A)=31-95%; (B)=0-30%)

SMILES: Cc1csc2sc(CNC34CC5CC(CC(C5)C3)C4)c(C)c12 [Example 176a]
- S31N OOcyte Inhibition at 100 uM (%) [1]: B (key: (A)=31-95%; (B)=0-30%)
- V27A OOcyte Inhibition at 100 uM (%) [2]: B (key: (A)=31-95%; (B)=0-30%)

SMILES: Cc1c(CNC23CC4CC(CC(C4)C2)C3)sc2ccccc12 [Example 177a, Adamantan-1-yl-(3-methyl-benzo[b]thiophen-2-ylmethyl)-amine]
- S31N OOcyte Inhibition at 100 uM (%) [1]: B (key: (A)=31-95%; (B)=0-30%)
- V27A OOcyte Inhibition at 100 uM (%) [2]: B (key: (A)=31-95%; (B)=0-30%)

SMILES: Oc1ccc2[nH]c(CNC34CC5CC(CC(C5)C3)C4)cc2c1 [Example 179a]
- S31N OOcyte Inhibition at 100 uM (%) [1]: B (key: (A)=31-95%; (B)=0-30%)
- V27A OOcyte Inhibition at 100 uM (%) [2]: B (key: (A)=31-95%; (B)=0-30%)

SMILES: COc1ccc2cc(CNC34CC5CC(CC(C5)C3)C4)sc2c1 [Example 185a, N-((6-methoxybenzo[b]thiophen-2-yl)methyl)adamantan-1-amine]
- S31N OOcyte Inhibition at 100 uM (%) [1]: A (key: (A)=31-95%; (B)=0-30%)
- V27A OOcyte Inhibition at 100 uM (%) [2]: B (key: (A)=31-95%; (B)=0-30%)

SMILES: COc1ccc2cc(CNC34CC5CC(CC(C5)C3)C4)[nH]c2c1 [Example 186a, N-((6-methoxy-1H-indol-2-yl)methyl)adamantan-1-amine]
- S31N OOcyte Inhibition at 100 uM (%) [1]: A (key: (A)=31-95%; (B)=0-30%)
- V27A OOcyte Inhibition at 100 uM (%) [2]: B (key: (A)=31-95%; (B)=0-30%)

SMILES: OC12CC3CC(C1)CC(NCc1cccs1)(C3)C2 [Example 187a, 3-[(Thiophen-2-ylmethyl)-amino]adamantan-1-ol]
- S31N OOcyte Inhibition at 100 uM (%) [1]: A (key: (A)=31-95%; (B)=0-30%)
- V27A OOcyte Inhibition at 100 uM (%) [2]: B (key: (A)=31-95%; (B)=0-30%)

SMILES: OC12CC3CC(C1)CC(NCc1ccc(-c4ccccc4)s1)(C3)C2 [Example 191a, 3-[(5-Phenyl-thiophen-2-ylmethyl)-amino]adamantan-1-ol]
- S31N OOcyte Inhibition at 100 uM (%) [1]: A (key: (A)=31-95%; (B)=0-30%)
- V27A OOcyte Inhibition at 100 uM (%) [2]: B (key: (A)=31-95%; (B)=0-30%)

SMILES: C(=C\c1ccccc1)/CNC12CC3CC(CC(C3)C1)C2 [Example 199a, N-cinnamyladamantan-1-amine]
- S31N OOcyte Inhibition at 100 uM (%) [1]: A (key: (A)=31-95%; (B)=0-30%)
- V27A OOcyte Inhibition at 100 uM (%) [2]: B (key: (A)=31-95%; (B)=0-30%)

SMILES: Clc1ccc(/C=C/CNC23CC4CC(CC(C4)C2)C3)cc1 [Example 200a, N-((E)-3-(4-chlorophenyl)allyl)adamantan-1-amine]
- S31N OOcyte Inhibition at 100 uM (%) [1]: A (key: (A)=31-95%; (B)=0-30%)
- V27A OOcyte Inhibition at 100 uM (%) [2]: B (key: (A)=31-95%; (B)=0-30%)
